Source: patent publication US20240010726A1, “LFA-1 SIGNALLING MEDIATOR FOR USE IN CANCER THERAPY” (Universität Basel, priority 2020, published 2024)

Legend:
[1] = test system: WT and LFA-1^−/− Jurkat T cells; experiment: Calcium flux assay in WT and LFA-1−/− Jurkat T cells; format: cell-based, human
Experimental: FIG. 3: Magnesium regulates LFA-1 mediated T cell activation and cytotoxicity as well BiTE- and CAR T-cell functionality. (a) Glycolytic switch of murine WT and LFA-1^−/− CTLs upon injection of anti-CD3/28 Ab in medium containing 1.2 mM Mg^2+ and 0 mM Mg^2+, presented as quantification of summarized data with n=4 mice. (b) Calcium flux in WT and LFA-1^−/− Jurkat T cells stimulated with anti-CD3 Ab in 1.2 mM and 0 mM Mg^2+ medium, respectively. Cells were loaded with Fluo4, and signal intensity as recorded by plate reader, was normalized to unstimulated baseline values. […] Quantified results of n=3 mice with 3 technical replicates each. […] The effector to target cell ratio was 3:1. Results are quantified of n=3 mice with 3 technical replicates each. (e) Representative CD11a (LFA-1) surface expression on human naïve and EM CD8 T cells, PHA T cell blasts and REP T cells, assessed by flow cytometry. […] The effector to target cell ratio was 1:1. Data is presented as quantified results of n=5 healthy donors (f, g, h), n=3 healthy donors with 2 technical replicates each or n=1 healthy donor with 4 technical replicates (j). […] The effector to target cell ratio was 1:1. Data is presented as quantified results of n=1 healthy donor with 4 technical replicates. […] (n) Representative histogram of CD11a expression on PHA-blasts, untransduced T cells as well anti-CD19 expressing CAR T cells. […] Pooled results of n=6 from 2 independent experiments are shown. (p) Abundance of IFNγ in cell culture supernatants corresponding to the conditions depicted in (o) at 24 hours was determined by ELISA (n=8, 3 independent experiments). (q) Tumor growth curves of mice placed on either Mg^2+-depleted diet or respective control diet and treated with either anti-PSMA CAR T cells, untransduced T cells or saline solution. Representative of n=2 independent experiments with n=6 mice per group. Jurkat T cells were loaded with Fluo4 (Invitrogen) at a final concentration of 2 μM in Mg^2+ free self-made medium for 30 min at 37° C. […] Fluorescence intensity over time was measure with a Tecan Spark M10 plate reader. […]

LFA-1 = molecular target: T1, LFA-1 (Homo sapiens, UniProt P05107+P20701); experiment: Flow cytometry of LFA-1 conformations on PHA T cell blasts; format: cell-based
T1 construct: endogenous in cells; host or cells: primary human T cells from healthy donors: PHA-induced T cell blasts, sorted EM and naive CD8 T cells, and NY-ESO-1 TCR-transduced REP T cells
Experimental: Glycolytic switch of human EM CD8 T cells (a) and naïve CD8 T cells (b) subsets upon injection of anti-CD3 Ab only, or anti-CD3 and anti-CD28 Ab, was assessed by metabolic flux analysis in medium containing either 1.2 mM Mg^2+, 0 mM Mg^2+, or medium which was reconstituted from 0 mM to 1.2 mM Mg^2+ immediately prior to activation (0→1.2 mM Mg^2+). (a) Results for human effector memory (EM) and (b) for human naïve CD8 T cells. Glycolytic switch was quantified by subtracting […] measurements. (c) Flow cytometric analysis of surface activation markers on human EM CD8 T cells 24 hours after activation by plate-bound anti-CD3 Ab and soluble anti-CD28 Ab, in 1.2 mM and 0 mM Mg^2+ media, respectively. (d) Abundance of inflammatory cytokines in corresponding EM CD8 T cell culture supernatants, determined by CBA. (e) CD11a (LFA-1) surface expression on human naïve and EM CD8 T cells as well PHA T cell blasts. Flow cytometry-based assessment of total LFA-1 expression assessed by mAb TS2/4 (f), closed conformation of αL by mAb HI111 (g), extended conformation of LFA-1 by mAb Kim127 (h), open head-piece conformation of LFA-1 by mAb m24 (i), phosphorylation of focal adhesion kinase (FAK) […] as well TNF expression (k)±TCR-induced activation in different extracellular Mg^2+ concentrations. (l) Flow cytometry-based assessment of LFA-1 with open-head piece conformation on human EM and naïve CD8 T cells using the open head-piece reporter mAb m24. (m) Assessment of glycolytic switch of EM CD8 T cells. (n) Assessment of glycolytic switch of naïve CD8 T cells. […] Naïve CD8 T cells were activated with in house generated anti-CD3/anti-CD28 coated microbeads. Polybead microspheres ([…], Polyscience […]) were incubated with 1 μg anti-CD3 Ab and 10 μg anti-CD28 Ab. […] Primary human T cells were activated for 24 h and PHA-blasts for 4 h. For evaluation of activation induced LFA-1 head-piece opening, T cells were activated for […] and anti-human CD11a/CD18 (clone m24) was directly added in medium and incubated on ice for 20 min. Cells were then washed twice in FACS Buffer and fixed in 2% PFA, incubated at room temperature for 20 min and washed with FACS Buffer before acquisition. […] For stainings with HI111, the cells were activated for 45 min, fixed with 2% PFA and subsequently stained with HI111 and washed with FACS Buffer before acquisition.

[2] = anti-CD3 Ab, 0 mM vs 1.2 mM Mg^2+
[3] = PHA T cell blasts ±TCR-induced activation, different extracellular Mg^2+ concentrations

T1 sequence (P20701 26-1170): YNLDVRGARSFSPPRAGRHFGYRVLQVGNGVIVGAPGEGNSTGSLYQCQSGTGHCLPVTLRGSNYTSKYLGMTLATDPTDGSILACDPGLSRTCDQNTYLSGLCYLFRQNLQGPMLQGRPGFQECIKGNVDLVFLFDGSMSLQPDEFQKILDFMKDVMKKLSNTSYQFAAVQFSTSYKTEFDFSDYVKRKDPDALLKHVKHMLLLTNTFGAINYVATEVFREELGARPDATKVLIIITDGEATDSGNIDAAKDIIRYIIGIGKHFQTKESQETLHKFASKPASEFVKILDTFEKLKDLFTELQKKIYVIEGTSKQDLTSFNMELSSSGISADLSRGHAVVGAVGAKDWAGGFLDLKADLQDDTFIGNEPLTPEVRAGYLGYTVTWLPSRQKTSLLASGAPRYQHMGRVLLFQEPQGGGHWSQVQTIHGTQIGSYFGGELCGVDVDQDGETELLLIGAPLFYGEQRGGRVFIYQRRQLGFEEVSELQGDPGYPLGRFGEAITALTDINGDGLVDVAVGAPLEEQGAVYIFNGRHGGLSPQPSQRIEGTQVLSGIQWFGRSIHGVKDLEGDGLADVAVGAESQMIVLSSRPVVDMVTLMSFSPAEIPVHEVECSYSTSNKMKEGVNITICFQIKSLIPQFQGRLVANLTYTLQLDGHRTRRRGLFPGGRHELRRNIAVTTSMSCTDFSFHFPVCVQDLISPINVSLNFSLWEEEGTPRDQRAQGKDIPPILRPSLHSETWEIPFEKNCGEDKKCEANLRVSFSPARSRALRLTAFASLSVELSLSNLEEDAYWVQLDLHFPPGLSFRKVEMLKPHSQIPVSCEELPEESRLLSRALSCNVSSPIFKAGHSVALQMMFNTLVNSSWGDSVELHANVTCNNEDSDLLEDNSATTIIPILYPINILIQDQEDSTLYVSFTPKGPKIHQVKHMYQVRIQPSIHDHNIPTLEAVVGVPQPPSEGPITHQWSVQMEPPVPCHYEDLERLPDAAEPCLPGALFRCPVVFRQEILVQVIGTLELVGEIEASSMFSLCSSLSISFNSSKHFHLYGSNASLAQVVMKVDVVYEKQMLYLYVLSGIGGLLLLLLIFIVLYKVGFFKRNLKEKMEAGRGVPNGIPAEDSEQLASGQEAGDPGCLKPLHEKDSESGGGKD
T1 sequence (P05107 23-769): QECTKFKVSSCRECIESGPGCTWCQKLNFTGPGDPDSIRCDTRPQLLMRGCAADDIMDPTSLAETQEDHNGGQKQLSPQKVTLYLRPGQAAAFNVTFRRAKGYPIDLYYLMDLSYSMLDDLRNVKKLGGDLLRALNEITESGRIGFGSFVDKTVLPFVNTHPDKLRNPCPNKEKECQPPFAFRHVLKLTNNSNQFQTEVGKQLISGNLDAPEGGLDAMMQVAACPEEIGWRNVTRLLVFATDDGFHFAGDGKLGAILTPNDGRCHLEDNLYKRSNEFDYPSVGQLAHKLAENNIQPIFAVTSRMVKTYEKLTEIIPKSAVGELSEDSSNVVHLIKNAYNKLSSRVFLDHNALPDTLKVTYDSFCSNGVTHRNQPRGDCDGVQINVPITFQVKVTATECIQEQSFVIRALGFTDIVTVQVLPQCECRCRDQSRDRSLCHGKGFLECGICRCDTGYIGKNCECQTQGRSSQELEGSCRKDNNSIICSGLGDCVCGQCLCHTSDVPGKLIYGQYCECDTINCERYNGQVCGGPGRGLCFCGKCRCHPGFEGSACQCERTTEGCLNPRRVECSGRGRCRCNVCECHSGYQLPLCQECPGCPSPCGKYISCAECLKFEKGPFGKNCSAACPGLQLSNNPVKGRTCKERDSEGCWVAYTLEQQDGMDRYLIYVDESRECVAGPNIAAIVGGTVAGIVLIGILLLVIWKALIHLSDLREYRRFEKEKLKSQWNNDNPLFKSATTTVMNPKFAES

Compound: [Mg+2] [Mg^2+, Magnesium]
- Ca^2+ influx in LFA-1^−/− Jurkat T cells [1, 2]: independent from extracellular Mg^2+ concentrations
- Ca^2+ influx in WT Jurkat T cells [1, 2]: decreased Ca^2+ influx
- Prolonged, sustained Ca^2+ influx ([1]; extracellular Mg^2+ depletion): absence of prolonged, sustained Ca^2+ influx
- Extended conformation of LFA-1 (mAb KIM127) (LFA-1; PHA T cell blasts upon T-cell activation, increasing extracellular Mg^2+ concentrations): dose-dependent KIM127 signal increase
- Inactive/bent LFA-1 conformation (mAb HI111) (LFA-1; PHA T cell blasts upon TCR stimulation, decreasing extracellular Mg^2+ concentrations): higher levels of inactive LFA-1
- Open head-piece conformation of LFA-1 (mAb m24) (LFA-1; [3]): strongly depending on extracellular Mg^2+ concentration
- Total LFA-1 expression (mAb TS2/4 epitope) (LFA-1; [3]): independent on the extracellular Mg^2+ concentration
- LFA-1 activation in unstimulated T cells (LFA-1; ±Mg^2+, data not shown): did not differ
